Values of other authors in US5763596A, “C-4' modified adenosine kinase inhibitors” (Metabasis Therapeutics, Inc., priority 1996, dated 1998).
Read-outs that look alike come from different tables or passages of the source.

Experiments:
rat cardiomyocytes = settings: adenosine deaminase inhibition alone; cited from earlier work
[1] = system: isolated guinea pig hearts; settings: in the absence of ADA inhibition; cited from earlier work
rat brain slices = settings: cited from earlier work
guinea pig brain slices = settings: cited from earlier work
mice = settings: cited from earlier work
isolated rat hearts = settings: cited from earlier work
[2] = in vivo; cited from earlier work

Row | SMILES | adenosine uptake (rat brain slices) | adenosine uptake (guinea pig brain slices) | general flaccidity (mice) | other results
1 | OC[C@H]1O[C@@H](n2cnc3c2N=CNC[C@H]3O)C[C@@H]1O [2'-deoxycoformycin] | – | – | – | effect on adenosine release from the cells (rat cardiomyocytes): no effect on adenosine release
2 | NC[C@H]1O[C@@H](n2cnc3c(N)ncnc32)[C@H](O)[C@@H]1O [5'-amino-5'-deoxyadenosine] | – | – | – | adenosine release effect [1]: not apparent
3 | C[C@H]1O[C@@H](n2cc(I)c3c(N)ncnc32)[C@H](O)[C@@H]1O [5'-deoxy-5-iodotubercidin] | adenosine uptake was reportedly inhibited | adenosine uptake was reportedly inhibited | pronounced general flaccidity | –
4 | Nc1ncnc2c1c(I)cn2[C@@H]1O[C@H](CO)[C@@H](O)[C@H]1O [5-iodotubercidin] | adenosine uptake was reportedly inhibited | adenosine uptake was reportedly inhibited | pronounced general flaccidity | increase in perfusate adenosine concentration (isolated rat hearts; hypoxic, anoxic or ischemic conditions): no increase in perfusate adenosine concentration; increase in perfusate adenosine concentration (isolated rat hearts; normoxic conditions): no increase in perfusate adenosine concentration; protection against ischemic cerebral injury [2]: apparently does not protect against ischemic cerebral injury
